The values below come from patent publication US20030165545A1, “Ophthalmic compositions including oil-in-water emulsions, and methods for making and using same” (Allergan, Inc., priority 2002, published 2003).

Where two headings read alike, the source gives them in different places.

The test system of the assay is Intra Ocular Pressure. The following applies: about 0.131% in a composition of Example 1. The method, then:
Approximately 0.05 mL of the composition is administered directly to the eye at time 0.

`Brc1c(NC2=NCCN2)ccc2nccnc12` [5-bromo-6-(2-imidozolin-2-ylamino) quinoxaline]: the “percent change of Intra Ocular Pressure (mm Hg)” value is, setting by setting: (1 hr after about 0.05 mL to the eye) −10.4%; (2 hr after about 0.05 mL to the eye) −16.0%; (4 hr after about 0.05 mL to the eye) −09.5%; (6 hr after about 0.05 mL to the eye) −09.4%.
